Laboratory results published in patent US8952024B2, “Herbicidal pyrimidone derivatives” (E I du Pont de Nemours and Company, priority 2009, dated 2015).
Like-named read-outs stand apart in the source and are kept apart here.

How the values were obtained:
Test in all cases: Test B pre-/postemergence plant response
Format in all cases: in vivo
[1] = system: Surinam grass (Brachiaria decumbens); details: for pest or weed control at 31 g/ha: 31 g ai/ha; for pest or weed control at 125 g/ha: 125 g ai/ha
Outline: (§1)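 Each species received compound formulated in non-phytotoxic solvent with surfactant, either at planting into a loam and sand blend or as a foliar spray once plants reached 2 to 18 cm in peat-based medium. Plants stayed in the greenhouse 13 to 15 days before visual evaluation against controls, scored 0 (no effect) to 100 (complete control).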

[2] = system: blackgrass (Alopecurus myosuroides); details: for pest or weed control at 31 g/ha: 31 g ai/ha; for pest or weed control at 125 g/ha: 125 g ai/ha
Outline: as §1

corn (Zea mays) = details: for Corn plant response rating (crop injury, 0 = no effect, 100 = complete kill) at 31 g/ha: 31 g ai/ha; for Corn plant response rating (crop injury, 0 = no effect, 100 = complete kill) at 125 g/ha: 125 g ai/ha
Outline: as §1

[3] = system: downy bromegrass (Bromus tectorum); details: for pest or weed control at 31 g/ha: 31 g ai/ha; for pest or weed control at 125 g/ha: 125 g ai/ha
Outline: as §1

[4] = system: goosegrass (Eleusine indica); details: for pest or weed control at 31 g/ha: 31 g ai/ha; for pest or weed control at 125 g/ha: 125 g ai/ha
Outline: as §1

[5] = system: green foxtail (Setaria viridis); details: for pest or weed control at 31 g/ha: 31 g ai/ha; for pest or weed control at 125 g/ha: 125 g ai/ha
Outline: as §1

[6] = system: johnsongrass (Sorghum halepense); details: for pest or weed control at 31 g/ha: 31 g ai/ha; for pest or weed control at 125 g/ha: 125 g ai/ha
Outline: as §1

kochia (Kochia scoparia) = details: for pest or weed control at 31 g/ha: 31 g ai/ha; for pest or weed control at 125 g/ha: 125 g ai/ha
Outline: as §1

[7] = system: lambsquarters (Chenopodium album); details: 62 g ai/ha, postemergence; 0 is no effect, 100 is complete control; 13 to 15 days
Outline: as §1

[8] = 62 g ai/ha, postemergence, 0 is no effect, 100 is complete control, 13 to 15 days
[9] = Preemergence, 250 g ai/ha, 0 to 100 scale

COCCCn1c(-c2ccccc2)ncc(C(=O)C2=C(O)CCCC2=O)c1=O [Compound 81, 5-[(2-hydroxy-6-oxo-cyclohexen-1-yl)carbonyl]-3-(3-methoxypropyl)-2-phenyl-4(3H)-pyrimidinone]
Surinam Grass plant response rating (0 to 100 scale) [1, 8]: 90 | Surinam Grass plant response rating [1, 9]: 100 | pest or weed control at 31 g/ha ([1]; Urochloa decumbens, post-emergence, postemergence, scale 0 to 100, 0 is no effect, 100 is complete control, read-out: Plant response rating, Surinam Grass): 75% | pest or weed control at 125 g/ha ([1]; Urochloa decumbens, post-emergence, Postemergence, visual rating after 13 to 15 days, scale 0 (no effect) to 100 (complete control)): 98% | pest or weed control at 250 g/ha ([1]; Urochloa decumbens, post-emergence, Postemergence, 250 g ai/ha, scale 0 to 100 (0 no effect, 100 complete control), read-out: Plant response rating, Surinam Grass): 100% | pest or weed control at 31 g/ha ([1]; Urochloa decumbens, pre-emergence, Preemergence, scale 0 to 100 (0 no effect, 100 complete control), read-out: Plant response rating, Surinam Grass): 98% | pest or weed control at 62 g/ha ([1]; Urochloa decumbens, pre-emergence, Preemergence, 62 g ai/ha, scale 0 to 100 (0 no effect, 100 complete control), read-out: Plant response rating, Surinam Grass): 100% | pest or weed control at 125 g/ha ([1]; Urochloa decumbens, pre-emergence, Preemergence, scale 0 to 100, 0 no effect, 100 complete control, read-out: Plant response rating, Surinam Grass): 100% | Blackgrass plant response rating (0 to 100 scale) [2, 8]: 10 | pest or weed control at 31 g/ha ([2]; Alopecurus myosuroides, post-emergence, 360 h, postemergence, scale 0 to 100, 0 is no effect, 100 is complete control, read-out: Plant response rating, Blackgrass): 5% | pest or weed control at 125 g/ha ([2]; Alopecurus myosuroides, post-emergence, 360 h, Postemergence, visual rating after 13 to 15 days, scale 0 (no effect) to 100 (complete control)): 30% | pest or weed control at 250 g/ha ([2]; Alopecurus myosuroides, post-emergence, 360 h, Postemergence, 250 g ai/ha, scale 0 to 100 (0 no effect, 100 complete control), read-out: Plant response rating, Blackgrass): 30% | pest or weed control at 31 g/ha ([2]; Alopecurus myosuroides, pre-emergence, 360 h, Preemergence, scale 0 to 100 (0 no effect, 100 complete control), read-out: Plant response rating, Blackgrass): 0% | pest or weed control at 62 g/ha ([2]; Alopecurus myosuroides, pre-emergence, 360 h, Preemergence, 62 g ai/ha, scale 0 to 100, 0 no effect, 100 complete control, read-out: Plant response rating, Blackgrass): 0% | pest or weed control at 125 g/ha ([2]; Alopecurus myosuroides, pre-emergence, 360 h, Preemergence, scale 0 to 100, 0 no effect, 100 complete control, read-out: Plant response rating, Blackgrass): 35% | Blackgrass plant response rating [2, 9]: 35 | Corn plant response rating (0 to 100 scale) (corn (Zea mays); [8]): 10 | Corn plant response rating (corn (Zea mays); [9]): 55 | Corn plant response rating (crop injury, 0 = no effect, 100 = complete kill) at 31 g/ha (corn (Zea mays); Zea mays, post-emergence, postemergence, scale 0 to 100, 0 is no effect, 100 is complete control): 5% | Corn plant response rating (crop injury, 0 = no effect, 100 = complete kill) at 125 g/ha (corn (Zea mays); Zea mays, post-emergence, Postemergence, visual rating after 13 to 15 days, scale 0 (no effect) to 100 (complete control)): 15% | Corn plant response rating (crop injury, 0 = no effect, 100 = complete kill) at 250 g/ha (corn (Zea mays); Zea mays, post-emergence, Postemergence, 250 g ai/ha, scale 0 to 100 (0 no effect, 100 complete control)): 65% | Corn plant response rating (crop injury, 0 = no effect, 100 = complete kill) at 31 g/ha (corn (Zea mays); Zea mays, pre-emergence, Preemergence, scale 0 to 100 (0 no effect, 100 complete control)): 40% | Corn plant response rating (crop injury, 0 = no effect, 100 = complete kill) at 62 g/ha (corn (Zea mays); Zea mays, pre-emergence, Preemergence, 62 g ai/ha, scale 0 to 100, 0 no effect, 100 complete control): 40% | Corn plant response rating (crop injury, 0 = no effect, 100 = complete kill) at 125 g/ha (corn (Zea mays); Zea mays, pre-emergence, Preemergence, scale 0 to 100, 0 no effect, 100 complete control): 50% | Bromegrass, Downy plant response rating (0 to 100 scale) [3, 8]: 5 | pest or weed control at 31 g/ha ([3]; Bromus tectorum, post-emergence, postemergence, scale 0 to 100, 0 is no effect, 100 is complete control, read-out: Plant response rating, Bromegrass, Downy): 5% | pest or weed control at 125 g/ha ([3]; Bromus tectorum, post-emergence, Postemergence, visual rating after 13 to 15 days, scale 0 (no effect) to 100 (complete control)): 30% | pest or weed control at 250 g/ha ([3]; Bromus tectorum, post-emergence, Postemergence, 250 g ai/ha, scale 0 to 100 (0 no effect, 100 complete control), read-out: Plant response rating, Bromegrass, Downy): 50% | pest or weed control at 31 g/ha ([3]; Bromus tectorum, pre-emergence, Preemergence, scale 0 to 100 (0 no effect, 100 complete control), read-out: Plant response rating, Bromegrass, Downy): 0% | pest or weed control at 62 g/ha ([3]; Bromus tectorum, pre-emergence, Preemergence, 62 g ai/ha, scale 0 to 100, 0 no effect, 100 complete control, read-out: Plant response rating, Bromegrass, Downy): 0% | pest or weed control at 125 g/ha ([3]; Bromus tectorum, pre-emergence, Preemergence, scale 0 to 100, 0 no effect, 100 complete control, read-out: Plant response rating, Bromegrass, Downy): 0% | Bromegrass, Downy plant response rating [3, 9]: 0 | Goosegrass plant response rating (0 to 100 scale) [4, 8]: 70 | pest or weed control at 31 g/ha ([4]; Eleusine indica, post-emergence, postemergence, scale 0 to 100, 0 is no effect, 100 is complete control, read-out: Plant response rating, Goosegrass): 65% | pest or weed control at 125 g/ha ([4]; Eleusine indica, post-emergence, Postemergence, visual rating after 13 to 15 days, scale 0 (no effect) to 100 (complete control)): 70% | pest or weed control at 250 g/ha ([4]; Eleusine indica, post-emergence, Postemergence, 250 g ai/ha, scale 0 to 100 (0 no effect, 100 complete control), read-out: Plant response rating, Goosegrass): 80% | pest or weed control at 31 g/ha ([4]; Eleusine indica, pre-emergence, Preemergence, scale 0 to 100 (0 no effect, 100 complete control), read-out: Plant response rating, Goosegrass): 98% | pest or weed control at 62 g/ha ([4]; Eleusine indica, pre-emergence, Preemergence, 62 g ai/ha, scale 0 to 100, 0 no effect, 100 complete control, read-out: Plant response rating, Goosegrass): 98% | pest or weed control at 125 g/ha ([4]; Eleusine indica, pre-emergence, Preemergence, scale 0 to 100, 0 no effect, 100 complete control, read-out: Plant response rating, Goosegrass): 100% | Goosegrass plant response rating [4, 9]: 100 | Foxtail, Green plant response rating (0 to 100 scale) [5, 8]: 85 | Foxtail, Green plant response rating [5, 9]: 100 | pest or weed control at 31 g/ha ([5]; Setaria viridis, post-emergence, postemergence, scale 0 to 100, 0 is no effect, 100 is complete control, read-out: Plant response rating, Foxtail, Green): 5% | pest or weed control at 125 g/ha ([5]; Setaria viridis, post-emergence, Postemergence, visual rating after 13 to 15 days, scale 0 (no effect) to 100 (complete control)): 95% | pest or weed control at 250 g/ha ([5]; Setaria viridis, post-emergence, Postemergence, 250 g ai/ha, scale 0 to 100 (0 no effect, 100 complete control), read-out: Plant response rating, Foxtail, Green): 95% | pest or weed control at 31 g/ha ([5]; Setaria viridis, pre-emergence, Preemergence, scale 0 to 100 (0 no effect, 100 complete control), read-out: Plant response rating, Foxtail, Green): 80% | pest or weed control at 62 g/ha ([5]; Setaria viridis, pre-emergence, Preemergence, 62 g ai/ha, scale 0 to 100, 0 no effect, 100 complete control, read-out: Plant response rating, Foxtail, Green): 90% | pest or weed control at 125 g/ha ([5]; Setaria viridis, pre-emergence, Preemergence, scale 0 to 100, 0 no effect, 100 complete control, read-out: Plant response rating, Foxtail, Green): 100% | Johnsongrass plant response rating (0 to 100 scale) [6, 8]: 10 | Johnsongrass plant response rating [6, 9]: 90 | pest or weed control at 31 g/ha ([6]; Sorghum halepense, post-emergence, postemergence, scale 0 to 100, 0 is no effect, 100 is complete control, read-out: Plant response rating, Johnsongrass): 5% | pest or weed control at 125 g/ha ([6]; Sorghum halepense, post-emergence, Postemergence, visual rating after 13 to 15 days, scale 0 (no effect) to 100 (complete control)): 75% | pest or weed control at 250 g/ha ([6]; Sorghum halepense, post-emergence, Postemergence, 250 g ai/ha, scale 0 to 100 (0 no effect, 100 complete control), read-out: Plant response rating, Johnsongrass): 100% | pest or weed control at 31 g/ha ([6]; Sorghum halepense, pre-emergence, Preemergence, scale 0 to 100 (0 no effect, 100 complete control), read-out: Plant response rating, Johnsongrass): 10% | pest or weed control at 62 g/ha ([6]; Sorghum halepense, pre-emergence, Preemergence, 62 g ai/ha, scale 0 to 100, 0 no effect, 100 complete control, read-out: Plant response rating, Johnsongrass): 80% | pest or weed control at 125 g/ha ([6]; Sorghum halepense, pre-emergence, Preemergence, scale 0 to 100, 0 no effect, 100 complete control, read-out: Plant response rating, Johnsongrass): 90% | Kochia plant response rating (0 to 100 scale) (kochia (Kochia scoparia); [8]): 80 | pest or weed control at 31 g/ha (kochia (Kochia scoparia); Bassia scoparia, post-emergence, postemergence, scale 0 to 100, 0 is no effect, 100 is complete control, read-out: Plant response rating, Kochia): 75% | pest or weed control at 125 g/ha (kochia (Kochia scoparia); Bassia scoparia, post-emergence, Postemergence, visual rating after 13 to 15 days, scale 0 (no effect) to 100 (complete control)): 90% | pest or weed control at 250 g/ha (kochia (Kochia scoparia); Bassia scoparia, post-emergence, Postemergence, 250 g ai/ha, scale 0 to 100 (0 no effect, 100 complete control), read-out: Plant response rating, Kochia): 100% | pest or weed control at 31 g/ha (kochia (Kochia scoparia); Bassia scoparia, pre-emergence, Preemergence, scale 0 to 100 (0 no effect, 100 complete control), read-out: Plant response rating, Kochia): 45% | pest or weed control at 62 g/ha (kochia (Kochia scoparia); Bassia scoparia, pre-emergence, Preemergence, 62 g ai/ha, scale 0 to 100 (0 no effect, 100 complete control), read-out: Plant response rating, Kochia): 55% | pest or weed control at 125 g/ha (kochia (Kochia scoparia); Bassia scoparia, pre-emergence, Preemergence, scale 0 to 100, 0 no effect, 100 complete control, read-out: Plant response rating, Kochia): 65% | Kochia plant response rating (kochia (Kochia scoparia); [9]): 70 | Lambsquarters plant response rating (0 to 100 scale) [7]: 98
